Paper PMC10889091, “Isolation, Characterization, Genome Annotation, and Evaluation of Tyrosinase Inhibitory Activity in Secondary Metabolites of Paenibacillus sp. JNUCC32: A Comprehensive Analysis through Molecular Docking and Molecular Dynamics Simulation” (International Journal of Molecular Sciences, 2024)
pIC50: −log10 of the molar value.

Biological target: T1, mushroom tyrosinase (Agaricus bisporus, UniProt C7FF04)
T1 construct: gene PPO3
Assay: mushroom tyrosinase (Sigma T3824) assay with L-tyrosine, absorbance at […] nm
Assay type: biochemical

T1 sequence (C7FF04 2-392): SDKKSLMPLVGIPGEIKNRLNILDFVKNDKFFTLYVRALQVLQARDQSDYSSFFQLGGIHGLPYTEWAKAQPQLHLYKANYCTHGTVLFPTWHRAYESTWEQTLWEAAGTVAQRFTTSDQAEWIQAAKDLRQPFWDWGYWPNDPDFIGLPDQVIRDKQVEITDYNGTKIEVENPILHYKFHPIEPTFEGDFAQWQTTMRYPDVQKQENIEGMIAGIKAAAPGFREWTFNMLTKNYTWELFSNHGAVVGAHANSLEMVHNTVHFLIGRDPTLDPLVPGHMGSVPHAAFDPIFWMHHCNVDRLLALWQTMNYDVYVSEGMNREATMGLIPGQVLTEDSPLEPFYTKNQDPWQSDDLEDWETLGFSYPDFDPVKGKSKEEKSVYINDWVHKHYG

Q: How did the pIC50 turn out when `OCCc1c[nH]c2ccccc12` [compound 1, tryptophol] was run?
A: 3.00
